The record followed here is US20240116985A1, “STAPLED PEPTIDES AND METHODS THEREOF” (priority 2020, published 2024).

Each structure is given as a SMILES string.

The nature of one series: CHI Log D procedure. As to conditions: pH 7.4. It counts as physicochemical.
As for `CC(=O)N[C@@H](Cc1ccccc1)C(=O)N[C@@H](CC(=O)O)C(=O)N[C@]1(C)CCCCCCC=CCCC[C@@](C)(C(=O)N[C@@H](C)C(=O)N[C@@H](Cc2ccccc2)C(=O)N[C@@H](Cc2c[nH]c3ccccc23)C(=O)N[C@@H](CCC(N)=O)C(N)=O)NC(=O)[C@H](Cc2ccccc2)NC(=O)[C@H](C)NC(=O)[C@H](C)NC(=O)[C@H](CC(=O)O)NC(=O)[C@H](CC(=O)O)NC(=O)[C@H](C)NC1=O` (single isomer, unassigned) [I-48, Ac-Phe-Asp-R8-Ala-Asp-Asp-Ala-Ala-Phe-S5-Ala-Phe-Trp-Gln-NH2], the “CHI Log D” value stood at 1.37.

On to `CC(=O)N[C@@H](Cc1ccccc1)C(=O)N[C@@H](CC(=O)O)C(=O)N[C@]1(C)CCN(C)C(=O)OCC=CCCCCC[C@@](C)(C(=O)N[C@@H](C)C(=O)N[C@@H](Cc2ccccc2)C(=O)N[C@@H](Cc2c[nH]c3ccccc23)C(=O)N[C@@H](CCC(N)=O)C(N)=O)NC(=O)[C@H](Cc2ccccc2)NC(=O)[C@H](C)NC(=O)[C@H](C)NC(=O)[C@H](CC(=O)O)NC(=O)[C@H](CC(=O)O)NC(=O)[C@H](C)NC1=O` (single isomer, unassigned) [I-50, Ac-Phe-Asp-RdN-Ala-Asp-Asp-Ala-Ala-Phe-S7-Ala-Phe-Trp-Gln-NH2], for which the “CHI Log D” value was 1.201.

Take `CC(=O)N[C@@H](Cc1ccccc1)C(=O)N[C@@H](CC(=O)O)C(=O)N[C@@H](C)C(=O)N[C@]1(C)CCCCCCC=CCOC(=O)N2CC[C@@](C(=O)N[C@@H](Cc3ccccc3)C(=O)N[C@@H](Cc3c[nH]c4ccccc34)C(=O)N[C@@H](CCC(N)=O)C(N)=O)(C2)NC(=O)[C@H](C(C)C)NC(=O)[C@H](Cc2ccccc2)NC(=O)[C@H](C)NC(=O)[C@H](C)NC(=O)[C@@](C)(Cc2ccccc2)NC(=O)[C@H](CC(=O)O)NC1=O` (single isomer, unassigned) [I-57, Ac-Phe-Asp-Ala-R8-Asp-aMeDF-Ala-Ala-Phe-Val-PyrS-Phe-Trp-Gln-NH2]: the “CHI Log D” value stood at 2.152.

Turning to `CC(=O)N[C@@H](Cc1ccccc1)C(=O)N[C@@H](CC(=O)O)C(=O)N[C@@H](C)C(=O)N[C@]1(C)CCCCCCC=CCOC(=O)N2CC[C@@](C(=O)N[C@@H](Cc3ccc(O)cc3)C(=O)N[C@@H](Cc3c[nH]c4ccccc34)C(=O)N[C@@H](CCC(N)=O)C(N)=O)(C2)NC(=O)[C@H](C(C)C)NC(=O)[C@H](Cc2ccccc2)NC(=O)[C@H](C)NC(=O)[C@H](C)NC(=O)[C@H](CC(=O)O)NC(=O)[C@H](CC(=O)O)NC1=O` (single isomer, unassigned) [I-63, Ac-Phe-Asp-Ala-R8-Asp-Asp-Ala-Ala-Phe-Val-PyrS-Tyr-Trp-Gln-NH2], the “CHI Log D” value is recorded as 1.019.

For the compound `CC[C@H](C)[C@H](NC(=O)[C@H](CC(=O)O)NC(=O)[C@H](C)NC(C)=O)C(=O)N[C@]1(C)CCN(C)C(=O)OCC=CCCCCC[C@@](C)(C(=O)N[C@@H](Cc2ccccc2)C(=O)N[C@@H](Cc2c[nH]c3ccccc23)C(=O)N[C@@H](Cc2c[nH]cn2)C(N)=O)NC(=O)[C@H](CCC(N)=O)NC(=O)[C@H](Cc2ccccc2)NC(=O)[C@H](C)NC(=O)[C@H](C)NC(=O)[C@H](CCC(C)C)NC(=O)[C@H](CC(=O)O)NC1=O` (single isomer, unassigned) [I-71, Ac-Ala-Asp-Ile-RdN-Asp-hLeu-Ala-Ala-Phe-Gln-S7-Phe-Trp-His-NH2], the “CHI Log D” value is 1.686.

For the compound `CC[C@H](C)[C@H](NC(=O)[C@H](CC(=O)O)NC(=O)[C@H](C)NC(C)=O)C(=O)N[C@]1(C)CCN(C)C(=O)OCC=CCCCCC[C@@](C)(C(=O)N[C@@H](Cc2ccccc2)C(=O)N[C@@H](Cc2c[nH]c3ccccc23)C(=O)N[C@@H](Cc2c[nH]cn2)C(N)=O)NC(=O)[C@H](CCC(N)=O)NC(=O)[C@H](Cc2ccccc2)NC(=O)[C@H](C)NC(=O)[C@H](C)NC(=O)[C@H](CC2CCCCC2)NC(=O)[C@H](CC(=O)O)NC1=O` (single isomer, unassigned) [I-73, Ac-Ala-Asp-Ile-RdN-Asp-Cha-Ala-Ala-Phe-Gln-S7-Phe-Trp-His-NH2], the “CHI Log D” value came out at 1.723.

In the case of `CC(=O)N[C@@H](Cc1ccccc1)C(=O)N[C@@H](CC(=O)O)C(=O)N[C@@H](C)C(=O)N[C@]1(C)CCCCCCC=CCOC(=O)N2CC[C@@](C(=O)N[C@@H](Cc3ccccc3)C(=O)N[C@@H](Cc3c[nH]c4ccccc34)C(=O)N[C@@H](CCC(N)=O)C(N)=O)(C2)NC(=O)[C@H](C(C)C)NC(=O)[C@H](CC2CCCCC2)NC(=O)[C@H](C)NC(=O)[C@H](C)NC(=O)[C@H](CC(=O)O)NC(=O)[C@H](CC(=O)O)NC1=O` (single isomer, unassigned) [I-75, Ac-Phe-Asp-Ala-R8-Asp-Asp-Ala-Ala-Cha-Val-PyrS-Phe-Trp-Gln-NH2], the “CHI Log D” value stood at 1.376.

Still in this series, the particulars now being: pH 7.4, CHI Log D.
With `CC(=O)N[C@@H](Cc1ccccc1)C(=O)N[C@@H](CC(=O)O)C(=O)N[C@]1(C)CCCCCCC=CCCC[C@@](C)(C(=O)N[C@@H](C)C(=O)N[C@@H](Cc2ccccc2)C(=O)N[C@@H](Cc2c[nH]c3ccccc23)C(=O)N[C@@H](CCC(N)=O)C(N)=O)NC(=O)[C@H](Cc2ccccc2)NC(=O)[C@H](C)NC(=O)[C@H](C)NC(=O)[C@H](CC(=O)O)NC(=O)[C@H](CC(=O)O)NC(=O)[C@H](C)NC1=O` (single isomer, unassigned) [I-47, Ac-Phe-Asp-R8-Ala-Asp-Asp-Ala-Ala-Phe-S5-Ala-Phe-Trp-Gln-NH2], the chromatographic logD (commonly a lipophilicity value derived from retention on a column) is 1.28.

In turn, `CC(=O)N[C@@H](Cc1ccccc1)C(=O)N[C@@H](CC(=O)O)C(=O)N[C@]1(C)CCN(C)C(=O)OCC=CCCCCC[C@@](C)(C(=O)N[C@@H](C)C(=O)N[C@@H](Cc2ccccc2)C(=O)N[C@@H](Cc2c[nH]c3ccccc23)C(=O)N[C@@H](CCC(N)=O)C(N)=O)NC(=O)[C@H](Cc2ccccc2)NC(=O)[C@H](C)NC(=O)[C@H](C)NC(=O)[C@H](CC(=O)O)NC(=O)[C@H](CC(=O)O)NC(=O)[C@H](C)NC1=O` (single isomer, unassigned) [I-49, Ac-Phe-Asp-RdN-Ala-Asp-Asp-Ala-Ala-Phe-S7-Ala-Phe-Trp-Gln-NH2] returned a chromatographic logD of 1.18.

For the compound `CC(=O)N[C@@H](Cc1ccccc1)C(=O)N[C@@H](CC(=O)O)C(=O)N[C@@H](C)C(=O)N[C@]1(C)CCCCCCC=CCOC(=O)N2CC[C@@](C(=O)N[C@@H](Cc3ccccc3)C(=O)N[C@@H](Cc3c[nH]c4ccccc34)C(=O)N[C@@H](CCC(N)=O)C(N)=O)(C2)NC(=O)[C@H](C(C)C)NC(=O)[C@H](Cc2ccccc2)NC(=O)[C@H](C)NC(=O)[C@H](C)NC(=O)[C@@](C)(Cc2ccccc2)NC(=O)[C@H](CC(=O)O)NC1=O` (single isomer, unassigned) [I-56, Ac-Phe-Asp-Ala-R8-Asp-aMeDF-Ala-Ala-Phe-Val-PyrS-Phe-Trp-Gln-NH2], the chromatographic logD came to 2.16.

In the case of `CC(=O)N[C@@H](Cc1ccccc1)C(=O)N[C@@H](CC(=O)O)C(=O)N[C@@H](C)C(=O)N[C@]1(C)CCCCCCC=CCOC(=O)N2CC[C@@](C(=O)N[C@@H](Cc3ccccc3)C(=O)N[C@@H](Cc3c[nH]c4ccccc34)C(=O)N[C@@H](CCC(N)=O)C(N)=O)(C2)NC(=O)[C@H](C(C)C)NC(=O)[C@H](Cc2ccccc2)NC(=O)[C@H](C)NC(=O)[C@H](C)NC(=O)[C@H](CCC(N)=O)NC(=O)[C@H](CC(=O)O)NC1=O` (single isomer, unassigned) [I-58, Ac-Phe-Asp-Ala-R8-Asp-Gln-Ala-Ala-Phe-Val-PyrS-Phe-Trp-Gln-NH2], the chromatographic logD was found to be 1.5.

`CC(=O)N[C@@H](Cc1ccccc1)C(=O)N[C@@H](CC(=O)O)C(=O)N[C@@H](C)C(=O)N[C@]1(C)CCCCCCC=CCOC(=O)N2CC[C@@](C(=O)N[C@@H](CC3CCCCC3)C(=O)N[C@@H](Cc3c[nH]c4ccccc34)C(=O)N[C@@H](CCC(N)=O)C(N)=O)(C2)NC(=O)[C@H](C(C)C)NC(=O)[C@H](Cc2ccccc2)NC(=O)[C@H](C)NC(=O)[C@H](C)NC(=O)[C@H](CC(=O)O)NC(=O)[C@H](CC(=O)O)NC1=O` (single isomer, unassigned) [I-60, Ac-Phe-Asp-Ala-R8-Asp-Asp-Ala-Ala-Phe-Val-PyrS-Cha-Trp-Gln-NH2] gave a chromatographic logD of 1.36.

On to `CC(=O)N[C@@H](Cc1ccccc1)C(=O)N[C@@H](CC(=O)O)C(=O)N[C@@H](C)C(=O)N[C@]1(C)CCCCCCC=CCOC(=O)N2CC[C@@](C(=O)N[C@@H](Cc3ccc(O)cc3)C(=O)N[C@@H](Cc3c[nH]c4ccccc34)C(=O)N[C@@H](CCC(N)=O)C(N)=O)(C2)NC(=O)[C@H](C(C)C)NC(=O)[C@H](Cc2ccccc2)NC(=O)[C@H](C)NC(=O)[C@H](C)NC(=O)[C@H](CC(=O)O)NC(=O)[C@H](CC(=O)O)NC1=O` (single isomer, unassigned) [I-62, Ac-Phe-Asp-Ala-R8-Asp-Asp-Ala-Ala-Phe-Val-PyrS-Tyr-Trp-Gln-NH2], for which the chromatographic logD worked out at 0.981.

For `CC[C@H](C)[C@H](NC(=O)[C@H](CC(=O)O)NC(=O)[C@H](C)NC(C)=O)C(=O)N[C@]1(C)CCN(C)C(=O)OCC=CCCCCC[C@@](C)(C(=O)N[C@@H](Cc2ccccc2)C(=O)N[C@@H](Cc2c[nH]c3ccccc23)C(=O)N[C@@H](Cc2c[nH]cn2)C(N)=O)NC(=O)[C@H](CCC(N)=O)NC(=O)[C@H](Cc2ccccc2)NC(=O)[C@H](C)NC(=O)[C@H](C)NC(=O)[C@H](CCC(C)C)NC(=O)[C@H](CC(=O)O)NC1=O` (single isomer, unassigned) [I-70, Ac-Ala-Asp-Ile-RdN-Asp-hLeu-Ala-Ala-Phe-Gln-S7-Phe-Trp-His-NH2], the chromatographic logD was found to be 1.61.

`CC[C@H](C)[C@H](NC(=O)[C@H](CC(=O)O)NC(=O)[C@H](C)NC(C)=O)C(=O)N[C@]1(C)CCN(C)C(=O)OCC=CCCCCC[C@@](C)(C(=O)N[C@@H](Cc2ccccc2)C(=O)N[C@@H](Cc2c[nH]c3ccccc23)C(=O)N[C@@H](Cc2c[nH]cn2)C(N)=O)NC(=O)[C@H](CCC(N)=O)NC(=O)[C@H](Cc2ccccc2)NC(=O)[C@H](C)NC(=O)[C@H](C)NC(=O)[C@H](CC2CCCCC2)NC(=O)[C@H](CC(=O)O)NC1=O` (single isomer, unassigned) [I-72, Ac-Ala-Asp-Ile-RdN-Asp-Cha-Ala-Ala-Phe-Gln-S7-Phe-Trp-His-NH2] registered a chromatographic logD of 1.72.

`CC(=O)N[C@@H](Cc1ccccc1)C(=O)N[C@@H](CC(=O)O)C(=O)N[C@@H](C)C(=O)N[C@]1(C)CCCCCCC=CCOC(=O)N2CC[C@@](C(=O)N[C@@H](Cc3ccccc3)C(=O)N[C@@H](Cc3c[nH]c4ccccc34)C(=O)N[C@@H](CCC(N)=O)C(N)=O)(C2)NC(=O)[C@H](C(C)C)NC(=O)[C@H](CC2CCCCC2)NC(=O)[C@H](C)NC(=O)[C@H](C)NC(=O)[C@H](CC(=O)O)NC(=O)[C@H](CC(=O)O)NC1=O` (single isomer, unassigned) [I-74, Ac-Phe-Asp-Ala-R8-Asp-Asp-Ala-Ala-Cha-Val-PyrS-Phe-Trp-Gln-NH2] returned a chromatographic logD of 1.33.
